Reference: the supplement of paper PMC10307832

Key:
Assay in all cases: relative viability (nuclei count vs DMSO), 5 days (fraction); higher = more cells survive
Cediranib + Decitabine = compound: COc1cc2c(Oc3ccc4[nH]c(C)cc4c3F)ncnc2cc1OCCCN1CCCC1 [Cediranib] + Nc1ncn([C@H]2C[C@H](O)[C@@H](CO)O2)c(=O)n1 [Decitabine] (partner 2 µM)
Summary of the method: (§1)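 Lung cancer cell lines in 1536-well plates were dosed by pin tool the day after seeding, either with one drug alone or with a fixed anchor-drug dose plus five library-drug doses (not always all listed) in √10 steps. After 5 days, cells were fixed and their nuclei stained in one step (final 0.05% Triton X-100, 1% formaldehyde, 1 ug/ml Hoechst), then counted on 4× images. Relative viability is the nuclei count in treated wells divided by that in vehicle wells. Values are medians of duplicate plates.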

Decitabine + OSI-027 = compound: Nc1ncn([C@H]2C[C@H](O)[C@@H](CO)O2)c(=O)n1 [Decitabine] + COc1cccc2cc(-c3nc([C@H]4CC[C@H](C(=O)O)CC4)n4ncnc(N)c34)[nH]c12 [OSI-027] (partner 0.5 µM)
Summary of the method: as §1

Decitabine + Crizotinib = compound: Nc1ncn([C@H]2C[C@H](O)[C@@H](CO)O2)c(=O)n1 [Decitabine] + C[C@@H](Oc1cc(-c2cnn(C3CCNCC3)c2)cnc1N)c1c(Cl)ccc(F)c1Cl [Crizotinib] (partner 1 µM)
Summary of the method: as §1

[1] = compound: O=C(C[C@H]1NCCC[C@@H]1O)Cn1cnc2cc(Br)c(Cl)cc2c1=O (racemic) [Halofuginone] + N=C(N)NC(=N)NCCc1ccccc1 [Phenformin] (partner 250 µM)
Summary of the method: as §1

Cell Line | relative viability (Cediranib + Decitabine; first compound 0.04 µM) | relative viability (Cediranib + Decitabine; first compound 0.1265 µM) | relative viability (Cediranib + Decitabine; first compound 0.4 µM) | relative viability (Cediranib + Decitabine; first compound 1.265 µM) | relative viability (Cediranib + Decitabine; first compound 4 µM) | relative viability (Decitabine + OSI-027; first compound 0.04 µM) | relative viability (Decitabine + OSI-027; first compound 0.1265 µM) | relative viability (Decitabine + OSI-027; first compound 0.4 µM) | relative viability (Decitabine + OSI-027; first compound 1.265 µM) | relative viability (Decitabine + OSI-027; first compound 4 µM) | relative viability (Decitabine + Crizotinib; first compound 0.04 µM) | relative viability (Decitabine + Crizotinib; first compound 0.1265 µM) | relative viability (Decitabine + Crizotinib; first compound 0.4 µM) | relative viability (Decitabine + Crizotinib; first compound 1.265 µM) | relative viability (Decitabine + Crizotinib; first compound 4 µM) | relative viability ([1]; first compound 0.001 µM) | relative viability ([1]; first compound 0.003162 µM) | relative viability ([1]; first compound 0.01 µM) | relative viability ([1]; first compound 0.03162 µM) | relative viability ([1]; first compound 0.1 µM)
LOU-NH91 | 0.787 | 0.831 | 0.81 | 0.792 | 0.8 | 0.497 | 0.738 | 0.621 | 0.629 | 0.672 | 0.509 | 0.683 | 0.615 | 0.613 | 0.656 | 0.75 | 0.686 | 0.65 | 0.786 | 0.628
SW 900 | 0.45 | 0.421 | 0.425 | 0.444 | 0.53 | 0.321 | 0.349 | 0.191 | 0.183 | 0.175 | – | – | – | – | – | 0.657 | 0.565 | 0.695 | 0.712 | 0.4
LCLC-103H | 0.789 | 0.815 | 0.781 | 0.731 | 0.761 | 0.406 | 0.472 | 0.462 | 0.376 | 0.376 | 1.01 | 1.02 | 0.78 | 0.82 | 0.79 | 0.35 | 0.341 | 0.323 | 0.326 | 0.309
NCI-H1915 | 0.259 | 0.248 | 0.259 | 0.26 | 0.28 | 0.447 | 0.429 | 0.29 | 0.312 | 0.263 | 0.314 | 0.285 | 0.217 | 0.194 | 0.201 | 0.361 | 0.386 | 0.366 | 0.339 | 0.355
IA-LM | – | – | – | – | – | – | – | – | – | – | 0.342 | 0.274 | 0.2 | 0.191 | 0.102 | – | – | – | – | –
NCI-H1734 | 0.531 | 0.512 | 0.551 | 0.497 | 0.536 | 0.506 | 0.554 | 0.578 | 0.368 | 0.266 | 0.515 | 0.603 | 0.593 | 0.396 | 0.304 | 0.369 | 0.436 | 0.427 | 0.408 | 0.369
SK-MES-1 | 0.427 | 0.394 | 0.436 | 0.384 | 0.387 | 0.508 | 0.529 | 0.384 | 0.188 | 0.203 | 0.866 | 0.703 | 0.329 | 0.333 | 0.289 | 0.657 | 0.717 | 0.621 | 0.556 | 0.228
Calu-6 | – | – | – | – | – | – | – | – | – | – | 0.495 | 0.478 | 0.283 | 0.227 | 0.224 | – | – | – | – | –
HCC-15 | 0.645 | 0.433 | 0.575 | 0.688 | 0.644 | 0.688 | 0.722 | 0.328 | 0.445 | 0.327 | 0.705 | 0.643 | 0.333 | 0.412 | 0.355 | 0.471 | 0.534 | 0.46 | 0.467 | 0.429
SK-LU-1 | 0.657 | 0.638 | 0.636 | 0.613 | 0.73 | 0.296 | 0.29 | 0.216 | 0.253 | 0.227 | 0.668 | 0.614 | 0.352 | 0.484 | 0.453 | 0.541 | 0.636 | 0.604 | 0.415 | 0.301
NCI-H2023 | 0.212 | 0.229 | 0.229 | 0.234 | 0.266 | 0.275 | 0.29 | 0.26 | 0.159 | 0.15 | 0.471 | 0.455 | 0.285 | 0.217 | 0.133 | 0.441 | 0.418 | 0.383 | 0.395 | 0.2
HCC-366 | 0.379 | 0.318 | 0.305 | 0.364 | 0.338 | 0.859 | 0.915 | 0.485 | 0.253 | 0.176 | 0.237 | 0.362 | 0.121 | 0.102 | 0.0419 | 0.723 | 0.633 | 0.646 | 0.581 | 0.458
NCI-H1395 | 0.717 | 0.769 | 0.675 | 0.712 | 0.77 | 0.483 | 0.529 | 0.516 | 0.455 | 0.492 | – | – | – | – | – | 0.457 | 0.464 | 0.442 | 0.444 | 0.334
NCI-H2228 | – | – | – | – | – | 0.418 | 0.431 | 0.205 | 0.103 | 0.207 | 0.524 | 0.394 | 0.367 | 0.199 | 0.286 | 0.32 | 0.332 | 0.307 | 0.338 | 0.172
NCI-H2342 | 0.83 | 0.827 | 0.732 | 0.74 | 0.812 | 0.544 | 0.583 | 0.565 | 0.595 | 0.599 | – | – | – | – | – | 0.719 | 0.566 | 0.561 | 0.688 | 0.547
NCI-H1793 | 0.51 | 0.477 | 0.478 | 0.478 | 0.506 | 0.204 | 0.277 | 0.289 | 0.277 | 0.233 | – | – | – | – | – | 0.438 | 0.388 | 0.429 | 0.328 | 0.332
NCI-H1299 | – | – | – | – | – | – | – | – | – | – | 0.979 | 0.991 | 0.956 | 0.85 | 0.856 | – | – | – | – | –
NCI-H522 | 0.702 | 0.746 | 0.76 | 0.661 | 0.656 | 0.695 | 0.827 | 0.561 | 0.609 | 0.582 | – | – | – | – | – | 0.73 | 0.653 | 0.649 | 0.648 | 0.657
NCI-H1623 | – | – | – | – | – | 0.359 | 0.438 | 0.427 | 0.4 | 0.363 | – | – | – | – | – | 0.624 | 0.548 | 0.59 | 0.576 | 0.432
NCI-H1648 | 0.44 | 0.501 | 0.448 | 0.48 | 0.481 | 0.266 | 0.236 | 0.264 | 0.267 | 0.26 | – | – | – | – | – | – | – | – | – | –
NCI-H1703 | – | – | – | – | – | – | – | – | – | – | 0.397 | 0.419 | 0.214 | 0.263 | 0.134 | – | – | – | – | –
